Reference: the NIST ThermoML archive (doi:10.1007/s10765-012-1383-x)
± gives the expanded uncertainty stated by the source.

Details: Fluid (supercritical or subcritical phases), Bellows volumetry

CC(C)C [2-methylpropane]
mass density [kg/m3]
Details | 360 K | 400 K | 440 K | 500 K | 550 K | 600 K
50000 kPa | 568.86 ± 0.76 | 539.91 ± 0.88 | 512.43 ± 0.76 | 472.16 ± 0.76 | 440.41 ± 0.76 | 410.52 ± 0.76
60000 kPa | 579.25 ± 0.88 | 552.31 ± 0.88 | 526.93 ± 0.76 | 489.95 ± 0.76 | 460.74 ± 0.76 | 433.26 ± 0.76
70000 kPa | 588.53 ± 0.88 | 563.06 ± 0.88 | 539.33 ± 0.76 | 504.87 ± 0.76 | 477.5 ± 0.76 | 451.97 ± 0.76
80000 kPa | 597.04 ± 0.88 | 572.73 ± 0.88 | 550.28 ± 0.76 | 517.77 ± 0.76 | 492.04 ± 0.76 | 467.84 ± 0.76
90000 kPa | 604.5 ± 0.88 | 581.56 ± 0.88 | 559.97 ± 0.76 | 529.04 ± 0.76 | 504.6 ± 0.76 | 481.73 ± 0.76
100000 kPa | 611.74 ± 0.76 | 589.43 ± 0.76 | 568.96 ± 2.9 | 539.24 ± 2.9 | 515.83 ± 2.9 | 494.03 ± 2.9
120000 kPa | 624.36 ± 0.76 | 603.57 ± 0.76 | 584.57 ± 2.9 | 557 ± 2.9 | 535.44 ± 2.9 | 515.09 ± 2.9
140000 kPa | 635.51 ± 0.76 | 615.95 ± 0.76 | 598.12 ± 2.9 | 572.25 ± 2.9 | 551.94 ± 2.9 | 532.7 ± 2.9
160000 kPa | 645.68 ± 0.76 | 627.09 ± 0.76 | 610.19 ± 2.9 | 585.63 ± 2.9 | 566.41 ± 2.9 | 548.14 ± 2.9
180000 kPa | 655.03 ± 0.76 | 637.21 ± 0.76 | 621.17 ± 2.9 | 597.32 ± 2.9 | 579.21 ± 2.9 | 561.73 ± 2.9
200000 kPa | 663.47 ± 0.76 | 646.22 ± 0.76 | 631.03 ± 2.9 | 607.94 ± 2.9 | 590.74 ± 2.9 | 573.91 ± 2.9

CCCC [butane]
mass density [kg/m3]
Details | 360 K | 400 K | 440 K | 500 K | 550 K | 600 K
50000 kPa | 585.47 ± 0.88 | 556.11 ± 0.88 | 527.49 ± 0.76 | 485.76 ± 0.76 | 452.74 ± 0.76 | 421.67 ± 0.76
60000 kPa | 595.41 ± 0.88 | 567.8 ± 0.88 | 541.19 ± 0.76 | 502.86 ± 0.76 | 472.65 ± 0.76 | 444.04 ± 0.76
70000 kPa | 604.19 ± 0.88 | 578.11 ± 0.88 | 552.99 ± 0.76 | 517.01 ± 0.76 | 489.04 ± 0.76 | 462.25 ± 0.76
80000 kPa | 612.02 ± 0.88 | 587.28 ± 0.88 | 563.51 ± 0.76 | 529.24 ± 0.76 | 503.05 ± 0.76 | 477.92 ± 0.76
90000 kPa | 619.58 ± 0.88 | 595.58 ± 0.88 | 572.93 ± 0.76 | 540.26 ± 0.76 | 515.43 ± 0.76 | 491.53 ± 0.76
100000 kPa | 626.29 ± 0.76 | 603.28 ± 0.76 | 581.43 ± 2.9 | 550.18 ± 2.9 | 526.47 ± 2.9 | 503.41 ± 2.9
120000 kPa | 638.57 ± 0.76 | 617 ± 0.76 | 596.67 ± 2.9 | 567.64 ± 2.9 | 545.49 ± 2.9 | 524.18 ± 2.9
140000 kPa | 649.66 ± 0.76 | 629.05 ± 0.76 | 609.84 ± 2.9 | 582.51 ± 2.9 | 561.8 ± 2.9 | 541.56 ± 2.9
160000 kPa | 659.24 ± 0.76 | 639.75 ± 0.76 | 621.49 ± 2.9 | 595.57 ± 2.9 | 575.61 ± 2.9 | 556.81 ± 2.9
180000 kPa | 668.57 ± 0.76 | 649.69 ± 0.76 | 632.12 ± 2.9 | 607.21 ± 2.9 | 588.11 ± 2.9 | 570.23 ± 2.9
200000 kPa | 676.57 ± 0.76 | 658.6 ± 0.76 | 641.85 ± 2.9 | 617.68 ± 2.9 | 599.35 ± 2.9 | 582.23 ± 2.9

CCC [propane]
mass density [kg/m3]
Details | 360 K | 400 K | 440 K | 500 K | 550 K | 600 K
50000 kPa | 520.66 ± 0.88 | 488.73 ± 0.88 | 457.63 ± 0.76 | 413.41 ± 0.76 | 380.04 ± 0.76 | 349.68 ± 0.76
60000 kPa | 532.63 ± 0.88 | 503.01 ± 0.88 | 474.47 ± 0.76 | 434.04 ± 0.76 | 403.51 ± 0.76 | 375.39 ± 0.76
70000 kPa | 543.15 ± 0.88 | 515.19 ± 0.88 | 488.72 ± 0.76 | 450.94 ± 0.76 | 422.59 ± 0.76 | 396.1 ± 0.76
80000 kPa | 552.56 ± 0.88 | 525.98 ± 0.88 | 500.95 ± 0.76 | 465.53 ± 0.76 | 438.76 ± 0.76 | 413.71 ± 0.76
90000 kPa | 560.92 ± 0.88 | 535.66 ± 0.88 | 511.84 ± 0.76 | 477.92 ± 0.76 | 452.84 ± 0.76 | 428.88 ± 0.76
100000 kPa | 568.67 ± 0.76 | 544.28 ± 0.76 | 521.48 ± 2.9 | 489.12 ± 2.9 | 464.72 ± 2.9 | 442.26 ± 2.9
120000 kPa | 582.46 ± 0.76 | 559.78 ± 0.76 | 538.35 ± 2.9 | 508.54 ± 2.9 | 485.88 ± 2.9 | 465.07 ± 2.9
140000 kPa | 594.1 ± 0.76 | 573.12 ± 0.76 | 552.91 ± 2.9 | 524.91 ± 2.9 | 503.64 ± 2.9 | 484.26 ± 2.9
160000 kPa | 605.2 ± 0.76 | 584.9 ± 0.76 | 565.72 ± 2.9 | 539.2 ± 2.9 | 518.92 ± 2.9 | 500.33 ± 2.9
180000 kPa | 614.83 ± 0.76 | 595.54 ± 0.76 | 577.17 ± 2.9 | 551.84 ± 2.9 | 532.53 ± 2.9 | 514.78 ± 2.9
200000 kPa | 624.04 ± 0.76 | 605.48 ± 0.76 | 587.69 ± 2.9 | 563.13 ± 2.9 | 544.69 ± 2.9 | 527.68 ± 2.9
